Results reported in patent US6677368B2, “4-aryl substituted indolinones” (Sugen, Inc., priority 2000, dated 2004).
pIC50: −log10 of the molar value.

Legend:
PDGFR = molecular target: T1, PDGFR (UniProt P09619); experiment: PDGFR bioassay (ELISA, in vitro kinase activity); format: biochemical; conditions: PDGFR-β expressing NIH 3T3 cell lysate, 20 μM ATP
T1 construct: PDGFR-β expressing NIH 3T3 cell lysate (SUGEN, Inc.)
Method: This assay is used to the in vitro kinase activity of PDGFR in an ELISA assay.
1. Corning 96-well ELISA plates
2. 28D4C10 monoclonal anti-PDGFR antibody (SUGEN, Inc.).
5. Blocking Buffer (same as for EGFR bioassay).
6. PDGFR-β expressing NIH 3T3 cell lysate (SUGEN, Inc.).
11. Kinase buffer phosphorylation mix: for 10 ml, mix 250 μl 1M TRIS, 200 μl 5M NaCl, 100 μl 1M MnCl2 and 501l 100 mM Triton X-100 in enough dH2O to make 10 ml.
12. NUNC 96-well V bottom polypropylene plates.
14. Rabbit polyclonal anti-phosphotyrosine serum (SUGEN, Inc.).
15. Goat anti-rabbit IgG peroxidase conjugate (Biosource Cat. No. ALI0404).
17. Hydrogen peroxide, 30% solution.
1. Coat Corning 96 well ELISA plates with […] 28D4C 10 in 100 μl PBS per well, hold overnight at 4° C.
2. Remove unbound 28D4C10 from wells by inverting plate to remove liquid. Wash 1× with dH2O. Pat the plate on a paper towel to remove excess liquid.
3. Add 150 μl of Blocking Buffer to each well. Incubate for 30 min. at room temperature with shaking.
4. Wash plate 3× with deionized water, then once with TBST. Pat plate on a paper towel to remove excess liquid and bubbles.
5. Dilute lysate in HNTG (10 μg lysate/100 μl HNTG).
6. Add 100 μl of diluted lysate to each well. Shake at room temperature for 60 min.
7. Wash plates as described in Step 4.
8. Add 80 μl working kinase buffer mix to ELISA plate containing captured PDGFR.
9. Dilute test compound 1:10 in TBS in 96-well polypropylene plates.
10. Add 10 μl diluted test compound to -ELISA plate. To control wells, add 10 μl TBS+10% DMSO. Incubate with shaking for 30 minutes at room temperature.
11. Add 10 μl ATP directly to all wells except negative control well (final well volume should be approximately 100 μl with 20 μM ATP in each well.) Incubate 30 minutes with shaking.
12. Stop reaction by adding 10 μl of EDTA solution to each well.
13. Wash 4× with deionized water, twice with TBST.
14. Add 100 μl anti-phosphotyrosine (1:3000 dilution in TBST) per well.
Incubate with shaking for 30-45 min. at room temperature.
16. Add 100 μl Biosource Goat anti-rabbit IgG peroxidase conjugate (1:2000 dilution in TBST) to each well. Incubate with shaking for 30 min. at room temperature.
18. Add 100 μl of ABTS/H2O2 solution to each well.
19. Incubate 10 to 30 minutes with shaking. Remove any bubbles.
20. If necessary stop reaction with the addition of 100 μl 0.2 M HCl per well.
21. Read assay on Dynatech MR7000 ELISA reader with test filter at 410 nM and reference filter at 630 nM.

FGFR1 = FGFR1 (Homo sapiens, UniProt P11362); experiment: FGFR1 bioassay (ELISA, in vitro kinase activity); format: biochemical; conditions: purified GST-FGFR1, poly(Glu-Tyr) substrate
Method: This assay is used to measure the in vitro kinase activity of FGF1-R in an ELISA assay.
1. Costar 96-well ELISA plates (Corning Catalog #3369).
2. Poly(Glu-Tyr) (Sigma Catalog #P0275).
4. 50 mM Hepes Buffer Solution.
5. Blocking Buffer (5% BSA/PBS).
6. Purified GST-FGFR1 (SUGEN, Inc.)
7. Kinase Dilution Buffer. Mix 500 μl 1M Hepes (GIBCO), 20 μl 5% BSA/PBS, 10 μl 100 mM sodium orthovanadate and 50 μl 5M NaCl.
9. ATP/MnCl2 phosphorylation mix: mix 20 μL ATP, 400 μL 1M MnCl2 and 9.56 ml dH2O.
10. NUNC 96-well V bottom polypropylene plates (Applied Scientific Catalog #AS-72092).
12. 0.05% TBST Add 500 μL TWEEN to 1 liter TBS.
13. Rabbit polyclonal anti-phosphotyrosine serum (SUGEN, Inc.).
14. Goat anti-rabbit IgG peroxidase conjugate (Biosource, Catalog #ALI0404).
1. Coat Costar 96 well ELISA plates with 1 μg per well Poly(Glu-Tyr) in 100 μl PBS. Store overnight at 4° C.
2. Wash coated plates once with PBS.
3. Add 150 μL of 5%BSA/PBS Blocking Buffer to each well. Incubate, with shaking, for 1 hr at room temperature.
4. Wash plate 2× with PBS, then once with 50 mM Hepes. Pat plates on a paper towel to remove excess liquid and bubbles.
5. Add 25 μL of 0.4 mM test compound in 4% DMSO or 4% DMSO alone (controls) to plate.
6. Dilute purified GST-FGFR1 in Kinase Dilution Buffer (5 ng kinase/50 μl KDB/well).
7. Add 50 μL of diluted kinase to each well.
8. Start kinase reaction by adding 25 μl/well of freshly prepared ATP/Mn++ (0.4 ml 1M MnCl2, 40 μL 10 mM ATP, 9.56 ml dH2O), freshly prepared).
9. Stop reaction with 25 μL of 0.5M EDTA.
10. Wash plate 4× with fresh TBST.
11. Make up Antibody Dilution Buffer: For 50 ml, mix 5 ml of 5% BSA, 250 μl of 5% milk and 50 μl of 100 mM sodium vanadate, bring to final volume with 0.05% TBST.
12. Add 100 μl per well of anti-phosphotyrosine (1:10000 dilution in ADB). Incubate, with shaking for 1 hr. at room temperature.
14. Add 100 μl per well of Biosource Goat anti-rabbit IgG peroxidase conjugate (1:6000 dilution in ADB). Incubate, with shaking for 1 hr. at room temperature.
15. Wash as in step 10 and then with PBS to remove bubbles and excess TWEEN.
16. Add 100 μl of ABTS/H2O2 solution to each well.
17. Incubate, with shaking, for 10 to 20 minutes. Remove any bubbles.
18. Read assay on Dynatech MR7000 ELISA reader: test filter at 410 nM, reference filter at 630 nM.

Chain of FGFR1 (P11362 22-822, species assumed): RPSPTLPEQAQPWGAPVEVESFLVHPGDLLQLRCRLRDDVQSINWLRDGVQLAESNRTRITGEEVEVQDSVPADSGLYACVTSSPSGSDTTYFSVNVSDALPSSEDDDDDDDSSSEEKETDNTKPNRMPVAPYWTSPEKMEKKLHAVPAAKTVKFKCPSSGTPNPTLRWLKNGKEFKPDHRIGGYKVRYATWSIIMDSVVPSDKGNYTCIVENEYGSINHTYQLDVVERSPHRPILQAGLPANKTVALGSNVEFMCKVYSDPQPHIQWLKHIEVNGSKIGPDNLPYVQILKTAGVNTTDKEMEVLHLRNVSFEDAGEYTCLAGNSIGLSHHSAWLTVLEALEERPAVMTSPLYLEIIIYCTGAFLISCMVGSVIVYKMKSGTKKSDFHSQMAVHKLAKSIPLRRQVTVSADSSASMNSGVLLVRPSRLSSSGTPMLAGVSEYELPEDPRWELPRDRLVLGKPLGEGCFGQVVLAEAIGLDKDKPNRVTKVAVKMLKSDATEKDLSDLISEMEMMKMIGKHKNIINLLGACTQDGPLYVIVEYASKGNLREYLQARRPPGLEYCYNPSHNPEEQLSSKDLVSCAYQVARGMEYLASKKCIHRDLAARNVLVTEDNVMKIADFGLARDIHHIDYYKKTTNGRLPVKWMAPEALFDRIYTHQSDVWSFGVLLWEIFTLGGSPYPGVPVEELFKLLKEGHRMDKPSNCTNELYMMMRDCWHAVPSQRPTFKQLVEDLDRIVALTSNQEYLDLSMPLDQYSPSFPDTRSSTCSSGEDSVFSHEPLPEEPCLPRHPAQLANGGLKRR

Cc1[nH]c(/C=C2\C(=O)Nc3cccc(-c4ccc(Br)cc4)c32)c(C)c1C(=O)N1C[C@@H](C)N[C@@H](C)C1 [Example 57, 4-(4-Bromo-phenyl)-3-[4-[(cis)-3,5-dimethyl-piperazine-1-carbonyl)-3,5-dimethyl-1H-pyrrol-2-ylmethylene]-1,3-dihydro-indol-2-one]
pIC50 (PDGFR): < 4.70 | pIC50 (FGFR1): 6.59

Cc1cc(C(=O)NCCN2CCCC2)c(/C=C2\C(=O)Nc3cccc(-c4ccc(Br)cc4)c32)[nH]1 [Example 58, 2-[4-(4-Bromo-phenyl)-2-oxo-1,2-dihydro-indol-3-ylidenemethyl]-5-methyl-1H-pyrrole-3-carboxylic Acid (2-Pyrrolidin-1-yl-ethyl)-amide]
pIC50 (PDGFR): 4.79 | pIC50 (FGFR1): 6.60

COc1cccc(-c2cccc3c2/C(=C/c2[nH]c(C)c(C(=O)NCCn4ccnn4)c2C)C(=O)N3)c1 [Example 48, 5-[4-(3-Methoxy-phenyl)-2-oxo-1,2-dihydro-indol-3-ylidenemethyl]-2,4-dimethyl-1H-pyrrole-3-carboxylic Acid (2-[1,2,3]Triazol-1-yl-ethyl)-amide]
pIC50 (PDGFR): 5.08 | pIC50 (FGFR1): 6.22

Cc1cc(C(=O)N2CC[C@H](N(C)C)C2)c(/C=C2\C(=O)Nc3cccc(-c4ccc(F)cc4)c32)[nH]1 [Example 10, 3-[3-((S)-3-Dimethylamino-pyrrolidine-1-carbonyl)-5-methyl-1H-pyrrol-2-ylmethylene]-4-(4-fluoro-phenyl)-1,3-dihydro-indol-2-one]
pIC50 (PDGFR): 4.92 | pIC50 (FGFR1): 5.81

Cc1cc(C(=O)N2C[C@@H](C)N[C@@H](C)C2)c(/C=C2\C(=O)Nc3cccc(-c4cccc(Cl)c4)c32)[nH]1 [Example 35, 4-(3-Chloro-phenyl)-3-[3-((cis)-3,5-dimethyl-piperazine-1-carbonyl)-5-methyl-1H-pyrrol-2-ylmethylene]-1,3-dihydro-indol-2-one]
pIC50 (PDGFR): 5.80 | pIC50 (FGFR1): 6.66

Cc1cc(C(=O)N2C[C@@H](C)N[C@@H](C)C2)c(/C=C2\C(=O)Nc3cccc(-c4ccc(Cl)cc4)c32)[nH]1 [Example 27]
pIC50 (PDGFR): < 4.70 | pIC50 (FGFR1): 6.20

CCN(CC)CCNC(=O)c1c(C)[nH]c(/C=C2\C(=O)Nc3cccc(-c4cccc(Br)c4)c32)c1C [Example 63, 5-[4-(3-Bromo-phenyl)-2-oxo-1,2-dihydro-indol-3-ylidenemethyl]-2,4-dimethyl-1H-pyrrole-3-carboxylic Acid (2-Diethylamino-ethyl)-amide]
pIC50 (PDGFR): 5.66 | pIC50 (FGFR1): 6.62

Cc1cc(C(=O)N2CC[C@H](N(C)C)C2)c(/C=C2\C(=O)Nc3cccc(-c4cccc(Cl)c4)c32)[nH]1 [Example 32, 4-(3-Chloro-phenyl)-3-[3-((S)-3-dimethylamino-pyrrolidine-1-carbonyl)-5-methyl-1H-pyrrol-2-ylmethylene]-1,3-dihydro-indol-2-one]
pIC50 (PDGFR): 4.93 | pIC50 (FGFR1): 6.46

Cc1cc(C(=O)NCCn2ccnn2)c(/C=C2\C(=O)Nc3cccc(-c4ccccc4F)c32)[nH]1 [Example 99, 2-[4-(2-Fluoro-phenyl)-2-oxo-1,2-dihydro-indol-3-ylidenemethyl]-5-methyl-1H-pyrrole-3-carboxylic Acid (2-[1,2,3]Triazol-1-yl-ethyl)-amide]
pIC50 (PDGFR): < 4.70 | pIC50 (FGFR1): 6.21

CCN(CC)CCNC(=O)c1c(C)[nH]c(/C=C2\C(=O)Nc3cccc(-c4cccc(F)c4)c32)c1C [Example 13, 5-[4-(3-Fluoro-phenyl)-2-oxo-1,2-dihydro-indol-3-ylidenemethyl]-2,4-dimethyl-1H-pyrrole-3-carboxylic Acid (2-Diethylamino-ethyl)-amide]
pIC50 (PDGFR): 5.63 | pIC50 (FGFR1): > 8.04

CCN(CC)CCNC(=O)c1c(C)[nH]c(/C=C2\C(=O)Nc3cccc(-c4ccc(OC(F)(F)F)cc4)c32)c1C [Example 140, 2,4-Dimethyl-5-[2-oxo-4-(4-trifluoromethoxy-phenyl)-1,2-dihydro-indol-3-ylidenemethyl]-1H-pyrrole-3-carboxylic Acid (2-Diethylamino-ethyl)-amide]
pIC50 (PDGFR): < 4.70 | pIC50 (FGFR1): 6.28

Cc1cc(C(=O)N2CC[C@@H](N(C)C)C2)c(/C=C2\C(=O)Nc3cccc(-c4ccc(Cl)cc4)c32)[nH]1 [Example 25, 4-(4-Chloro-phenyl)-3-[3-((R)-3-dimethylamino-pyrrolidine-1-carbonyl)-5-methyl-1H-pyrrol-2-ylmethylene]-1,3-dihydro-indol-2-one]
pIC50 (PDGFR): 4.93 | pIC50 (FGFR1): 6.25

Cc1[nH]c(/C=C2\C(=O)Nc3cccc(-c4ccc(Cl)cc4)c32)c(C)c1C(=O)N1CCN(C)CC1 [Example 20, 4-(4-Chloro-phenyl)-3-[3,5-dimethyl-4-(4-methyl-piperazine-1-carbonyl)-1H-pyrrol-2-ylmethylene]-1,3-dihydro-indol-2-one]
pIC50 (PDGFR): 5.47 | pIC50 (FGFR1): 5.94

Cc1[nH]c(/C=C2\C(=O)Nc3cccc(-c4ccc(Cl)cc4)c32)c(C)c1C(=O)NCCN1CCCC1 [Example 22, 5-[4-(4-Chloro-phenyl)-2-oxo-1,2-dihydro-indol-3-ylidenemethyl]-2,4-dimethyl-1H-pyrrole-3-carboxylic Acid (2-Pyrrolidin-1-yl-ethyl)-amide]
pIC50 (PDGFR): 5.79 | pIC50 (FGFR1): 7.24

Cc1[nH]c(/C=C2\C(=O)Nc3cccc(-c4cccc(F)c4)c32)c(C)c1C(=O)NCCn1ccnn1 [Example 15, 5-[4-(3-Fluoro-phenyl)-2-oxo-1,2-dihydro-indol-3-ylidenemethyl]-2,4-dimethyl-1H-pyrrole-3-carboxylic Acid (2-[1,2,3]Triazol-1-yl-ethyl)-amide]
pIC50 (PDGFR): 4.99 | pIC50 (FGFR1): 5.68

CCN(CC)CCNC(=O)c1c(C)[nH]c(/C=C2\C(=O)Nc3cccc(-c4cccc(OC)c4)c32)c1C [Example 46, 5-[4-(3-Methoxy-phenyl)-2-oxo-1,2-dihydro-indol-3-ylidenemethyl]-2,4-dimethyl-1H-pyrrole-3-carboxylic Acid (2-Diethylamino-ethyl)-amide]
pIC50 (PDGFR): 5.38 | pIC50 (FGFR1): 7.66
